The target in experiment [1] is Histamine H2 receptor (Cavia porcellus) (UniProt P47747). The experiment in a line: Histamine H2 receptor antagonism in isolated guinea pig right atrium at concentration of 1*10e-6 g/mL of histamine hydrochloride. It counts as functional, tissue-based. Particulars: Cardiac atrium.
Experiment [2] has as its system Helicobacter pylori. The experiment in a line: Minimum inhibitory concentration that inhibited macroscopic colony growth of Helicobacter pylori. Format: functional.
Another experiment relates to Bacteroides fragilis. The experiment in a line: Antimicrobial activity against Bacteroides fragilis. It counts as functional.
Experiment [3] has as its system Clostridium perfringens. The experiment in a line: (§1) Antimicrobial activity against Clostridium perfringens. It counts as functional, organism-based.
A further experiment relates to Campylobacter jejuni. The experiment in a line: Antimicrobial activity against Campylobacter jejuni. It counts as functional.
Experiment [4] deals with Clostridioides difficile. The experiment in a line: (§2) Antimicrobial activity against Clostridium difficile. Format: functional, organism-based.
The subject of experiment [5] is Helicobacter pylori. The experiment in a line: Antimicrobial activity against Helicobacter pylori. Format: functional.
Another experiment deals with Neisseria gonorrhoeae. The experiment in a line: Antimicrobial activity against Neisseria gonorrhoeae. Format: functional.
Another experiment has as its system Neisseria meningitidis. The experiment in a line: Antimicrobial activity against Neisseria meningitidis. It counts as functional.
The subject of another experiment is Rattus norvegicus. The experiment in a line: Inhibition of histamine stimulated gastric acid secretion in lumen perfused stomach of anesthetized rats at 1 mg/kg i.v. dose. Particulars: route intravenous. It counts as functional.
In experiment [6] the test system is Clostridium perfringens. Described as §1. Format: functional.
In experiment [7] the test system is Clostridioides difficile. Described as §2. Format: functional.

For 35 molecules, inhibition, MIC and inhibition in vivo results are on record in ChEMBL document CHEMBL1132323, “Anti-Helicobacter pylori agents. 3. 2-[(Arylalkyl)guanidino]-4-furylthiazoles” (1999).

As a reminder, the inhibition is the drop in the measured response relative to a control, in per cent. What is called MIC is the lowest concentration found to suppress growth. A lower MIC goes with inhibition by little substance. One may read the inhibition in vivo as the change of the read-out against control, counted positive when it falls. Read a high inhibition in vivo as strong suppression.

Values after ≈ are worked out from the molar mass of the structure shown. Some results are limits rather than exact numbers.

Sequence of Histamine H2 receptor (Cavia porcellus) (P47747 whole entry): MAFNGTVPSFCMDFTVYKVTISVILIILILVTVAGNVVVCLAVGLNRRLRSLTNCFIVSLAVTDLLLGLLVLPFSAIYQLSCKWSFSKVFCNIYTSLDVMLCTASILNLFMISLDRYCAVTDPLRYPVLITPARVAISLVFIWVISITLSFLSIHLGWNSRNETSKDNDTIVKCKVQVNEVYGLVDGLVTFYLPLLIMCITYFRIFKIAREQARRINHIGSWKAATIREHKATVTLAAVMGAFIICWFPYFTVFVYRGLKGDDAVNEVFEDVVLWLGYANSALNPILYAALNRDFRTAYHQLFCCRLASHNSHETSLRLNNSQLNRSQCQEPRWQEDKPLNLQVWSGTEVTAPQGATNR

Take `CC(=O)NCc1ccc(-c2csc(NC(=N)NCc3ccccc3)n2)o1`: the inhibition in experiment [1] turned out to be 35%.

Take `COc1ccccc1OCC/N=C(\N)Nc1nc(-c2ccc(CNC(C)=O)o2)cs1`: 2.5 µg/mL (≈ 5.82 µM) was the least that counted as inhibitory in the experiment on Helicobacter pylori [2] (MIC).

For `COc1ccccc1C/N=C(\N)Nc1nc(-c2ccc(CNC(C)=O)o2)cs1`, the inhibition in experiment [1] turned out to be 26%.

In turn, `COc1ccccc1CC/N=C(\N)Nc1nc(-c2cc(C)c(CNC(C)=O)o2)cs1` registered an MIC with Helicobacter pylori [2] of 0.03 µg/mL (≈ 0.0702 µM). This molecule had an inhibition in [1] of 0%.

Regarding `COc1ccccc1CC/N=C(\N)Nc1nc(-c2cc(-c3ccccc3)c(CNC(C)=O)o2)cs1`, inhibition of growth with Helicobacter pylori [2] (MIC) required 9.47 µg/mL (≈ 19.3 µM).

As for BISMUTH SUBSALICYLATE, the MIC was 50 µg/mL against Bacteroides fragilis; more than 100 µg/mL against Clostridium perfringens [3]; 7.4 µg/mL against Campylobacter jejuni; 50 µg/mL with Clostridioides difficile [4]; 8.7 µg/mL in the experiment on Helicobacter pylori [5]; 4.7 µg/mL with Neisseria gonorrhoeae. The molecule further yielded a minimal inhibitory concentration (MIC) against Neisseria meningitidis of 12.5 µg/mL.

In the experiment on Helicobacter pylori [2], `CC(=O)NCc1ccc(-c2csc(NC(=N)NCCNc3ccccc3)n2)o1` yielded an MIC of 1.79 µg/mL (≈ 4.49 µM).

Take `Cc1ncc([N+](=O)[O-])n1CCO` [METRONIDAZOLE]: the minimal inhibitory concentration (MIC) against Helicobacter pylori [2] is 5.4 µg/mL (≈ 31.6 µM).

`COc1ccccc1/N=C(\N)Nc1nc(-c2ccc(CNC(C)=O)o2)cs1`: in the experiment on Helicobacter pylori [2], the MIC was found to be 0.24 µg/mL (≈ 0.623 µM).

Consider `COc1ccccc1CC/N=C(\N)Nc1nc(-c2cc(CNC(C)=O)co2)cs1`, for which the MIC against Helicobacter pylori [2] was determined as 2.21 µg/mL (≈ 5.34 µM).

In turn, `CN/C(=N\CCSCc1nc[nH]c1C)NC#N` [CIMETIDINE] had an MIC in the experiment with Helicobacter pylori [2] of 1130 µg/mL (≈ 4480 µM). The same molecule returned an inhibition in vivo at 1 mg/kg in the experiment with Rattus norvegicus of 53%.

Regarding “(2,5-Dihydroxy-4,7-dioxo-[1,3,2]dioxabismepan-5-yl)-acetic acid”, the MIC in the experiment on Helicobacter pylori [2] is 18 µg/mL.

As to `CC(=O)NCc1ccc(-c2csc(NC(=N)NCCc3ccccc3N)n2)o1`, the minimum inhibitory concentration (MIC) against Helicobacter pylori [2] is 1.01 µg/mL (≈ 2.53 µM).

In the case of `CC(=O)NCc1ccc(-c2csc(NC(=N)NCCc3ccccc3[N+](=O)[O-])n2)o1`, it took 0.14 µg/mL (≈ 0.327 µM) to inhibit growth in the experiment on Helicobacter pylori [2] (MIC). The inhibition in experiment [1] was 66%. The same molecule had an inhibition in vivo at 1 mg/kg with Rattus norvegicus of 39%.

Turning to `CC(=O)NCc1ccc(-c2csc(NC(=N)NCCc3c[nH]cn3)n2)o1`, the MIC against Helicobacter pylori [2] was found to be 31 µg/mL (≈ 83 µM).

For `CCOc1ccccc1C/N=C(\N)Nc1nc(-c2ccc(CNC(C)=O)o2)cs1`, in experiment [1], the inhibition was found to be 42%.

In [1], `CC(=O)NCc1ccc(-c2csc(NC(=N)NCc3ccccc3Cl)n2)o1` came in with an inhibition of 50%.

With `COc1ccccc1CC/N=C(\N)Nc1nc(-c2cc(CNC(C)=O)c(C)o2)cs1`, the minimal inhibitory concentration (MIC) with Bacteroides fragilis is more than 100 µg/mL; in the experiment on Clostridium perfringens [6] it was more than 100 µg/mL; against Campylobacter jejuni it was 23 µg/mL (≈ 53.8 µM); against Clostridioides difficile [7], more than 100 µg/mL; against Helicobacter pylori [2], 0.046 µg/mL (≈ 0.108 µM); against Neisseria gonorrhoeae, more than 100 µg/mL. Moreover, the MIC in the experiment with Neisseria meningitidis was more than 100 µg/mL. The inhibition in experiment [1] worked out at 0%.

The molecule `CC(=O)NCc1ccc(-c2csc(NC(=N)NCCc3ccccc3NC(C)=O)n2)o1` had an MIC against Helicobacter pylori [2] of 4.1 µg/mL (≈ 9.31 µM).

`CC[C@H]1OC(=O)[C@H](C)[C@@H](O[C@H]2C[C@@](C)(OC)[C@@H](O)[C@H](C)O2)[C@H](C)[C@@H](O[C@@H]2O[C@H](C)C[C@H](N(C)C)[C@H]2O)[C@](C)(OC)C[C@@H](C)C(=O)[C@H](C)[C@@H](O)[C@]1(C)O` [CLARITHROMYCIN] came in with an MIC against Helicobacter pylori [2] of 0.057 µg/mL (≈ 0.0762 µM).

In the experiment with Helicobacter pylori [2], `CC(=O)NCc1ccc(-c2csc(NC(=N)NCCc3ccccc3)n2)o1` displayed an MIC of 0.13 µg/mL (≈ 0.339 µM). This molecule also came in with an inhibition in [1] of 71%. In the experiment with Rattus norvegicus, this molecule returned an inhibition in vivo at 1 mg/kg of 24%.

Turning to `COc1cccc(C/N=C(\N)Nc2nc(-c3ccc(CNC(C)=O)o3)cs2)c1`, in experiment [1], the inhibition stood at 28%.

The molecule `CC(=O)NCc1ccc(-c2csc(NC(=N)NCc3ccccc3C)n2)o1` displayed an inhibition in experiment [1] of 88%.

Molecule `CC(=O)NCc1ccc(-c2csc(NC(=N)NCCc3ccncc3)n2)o1` showed an MIC against Helicobacter pylori [2] of 1.92 µg/mL (≈ 4.99 µM).

Take `COc1ccc(CC/N=C(\N)Nc2nc(-c3ccc(CNC(C)=O)o3)cs2)cc1`: it took 0.9 µg/mL (≈ 2.18 µM) to inhibit growth with Helicobacter pylori [2] (MIC). Also, the inhibition in [1] turned out to be 27%. In the experiment with Rattus norvegicus, this molecule returned an inhibition in vivo at 1 mg/kg of 5%.

For the molecule `CC(=O)NCc1ccc(-c2csc(NC(=N)NCCc3ccco3)n2)o1`, in the experiment on Helicobacter pylori [2], the minimum inhibitory concentration (MIC) is 0.24 µg/mL (≈ 0.643 µM). The molecule further had an inhibition in experiment [1] of 63%. Besides, the inhibition in vivo at 1 mg/kg in the experiment with Rattus norvegicus amounted to 0%.

In turn, `CC(=O)NCc1ccc(-c2csc(NC(=N)NCCc3ccccn3)n2)o1` returned a minimum inhibitory concentration (MIC) in the experiment on Helicobacter pylori [2] of 0.73 µg/mL (≈ 1.9 µM). The same molecule returned an inhibition in experiment [1] of 0%.

Turning to `CC(=O)NCc1ccc(-c2csc(NC(=N)NCCCc3ccccc3)n2)o1`, the inhibition in experiment [1] worked out at 40%.

As for `CC(=O)NCc1ccc(-c2csc(NC(=N)NCc3ccccc3O)n2)o1`, in the experiment with Helicobacter pylori [2], the minimum inhibitory concentration (MIC) was found to be 5.8 µg/mL (≈ 15 µM).

Take `CC(=O)NCc1ccc(-c2csc(NC(=N)NCc3ccco3)n2)o1`: in experiment [1], the inhibition was found to be 46%.

Consider `CC1(C)S[C@@H]2[C@H](NC(=O)[C@H](N)c3ccc(O)cc3)C(=O)N2[C@H]1C(=O)O` [AMOXICILLIN], for which the minimum inhibitory concentration (MIC) was found to be 2.1 µg/mL (≈ 5.75 µM) against Bacteroides fragilis; 0.027 µg/mL (≈ 0.0739 µM) in the experiment on Clostridium perfringens [6]; 2.2 µg/mL (≈ 6.02 µM) with Campylobacter jejuni; 0.28 µg/mL (≈ 0.766 µM) against Clostridioides difficile [7]; 0.021 µg/mL (≈ 0.0575 µM) in the experiment on Helicobacter pylori [5]; 7.7 µg/mL (≈ 21.1 µM) against Neisseria gonorrhoeae. Also, the minimal inhibitory concentration (MIC) with Neisseria meningitidis turned out to be 0.056 µg/mL (≈ 0.153 µM).

The molecule `COc1ccccc1CC/N=C(\N)Nc1nc(-c2ccc(CNC(C)=O)o2)cs1` gave an MIC against Helicobacter pylori [2] of 0.052 µg/mL (≈ 0.126 µM). The molecule further returned an inhibition in [1] of 67%. Besides, testing at 1 mg/kg in the experiment on Rattus norvegicus gave an inhibition in vivo of 54%.

In the case of `CC(=O)NCc1ccc(-c2csc(NC(=N)NCCc3cccs3)n2)o1`, the MIC against Helicobacter pylori [2] came out at 0.112 µg/mL (≈ 0.288 µM). Further, in experiment [1], the inhibition came to 83%. In addition, 1 mg/kg produced 21% inhibition in vivo in the experiment on Rattus norvegicus.

For `COc1cccc(CC/N=C(\N)Nc2nc(-c3ccc(CNC(C)=O)o3)cs2)c1`, it took 0.36 µg/mL (≈ 0.871 µM) to inhibit growth in the experiment with Helicobacter pylori [2] (MIC). In [1], this molecule gave an inhibition of 70%. This molecule also returned an inhibition in vivo at 1 mg/kg in the experiment on Rattus norvegicus of 65%.

Consider `COc1ccc(C/N=C(\N)Nc2nc(-c3ccc(CNC(C)=O)o3)cs2)cc1`, for which, in the experiment with Helicobacter pylori [2], 0.28 µg/mL (≈ 0.701 µM) was the least that counted as inhibitory (MIC).
